Columns and labels:
Type in all cases: in vivo
LDL blood levels = experiment: Total LDL blood levels in human subjects upon MN-001 administration
Method: Human subjects were administered various daily amounts of MN-001 and placebo and their total LDL blood levels (mg/dl) measured at various time points.

blood levels of HDL = experiment: Blood levels of HDL upon administration of MN-001; settings: human subjects
[1] = system: triglyceride blood levels; experiment: Triglyceride blood levels in human subjects upon MN-001 administration
Method: Human subjects were administered various daily amounts of MN-001 and placebo and their triglyceride blood levels (mg/deciliter or dl) measured at various time points. […] As to the “week 14” time point in Table 1-D, it provides triglyceride levels of follow-up patients after MN-001 administration was stopped at 12 weeks.

[2] = system: total cholesterol blood levels; experiment: Total cholesterol blood levels in human subjects upon MN-001 administration
Method: Human subjects were administered various daily amounts of MN-001 and placebo and their total cholesterol blood levels (mg/dl) measured at various time points.

[3] = human subjects, various daily amounts, with certain exceptions

In the case of `CCCc1c(SCCCOc2ccc(C(C)=O)c(OCCCC(=O)O)c2CCC)ccc(C(C)=O)c1O` [MN-001], the “mean LDL blood level” value (LDL blood levels; Table 3-A Asthma Subjects, 500 mg tid (N = 36), Screening) is reported as 113.8 mg/dL, the “mean LDL blood level” value (LDL blood levels; Table 3-A Asthma Subjects, 500 mg tid (N = 36), Week 4) is reported as 105.4 mg/dL and the “mean LDL blood level” value (LDL blood levels; Table 3-A Asthma Subjects, 750 mg bid (N = 36), Screening) is reported as 100.3 mg/dL. The “mean LDL blood level” value (LDL blood levels; Table 3-A Asthma Subjects, 750 mg bid (N = 36), Week 4) was 104.7 mg/dL, the “mean LDL blood level” value (LDL blood levels; Table 3-A Asthma Subjects, 750 mg qd (N = 36), Screening) was 115.7 mg/dL and the “mean LDL blood level” value (LDL blood levels; Table 3-A Asthma Subjects, 750 mg qd (N = 36), Week 4) was 106.9 mg/dL. For the same compound, the “mean LDL blood level” value (LDL blood levels; Table 3-B Interstitial Cystitis Subjects, 500 mg bid (N = 106), Baseline) was 62.6 mg/dL, the “mean LDL blood level” value (LDL blood levels; Table 3-B Interstitial Cystitis Subjects, 500 mg bid (N = 106), Week 4) was 54.5 mg/dL and the “mean LDL blood level” value (LDL blood levels; Table 3-B Interstitial Cystitis Subjects, 500 mg bid (N = 106), Week 8) was 52.2 mg/dL. For the same compound, the “mean LDL blood level” value (LDL blood levels; Table 3-B Interstitial Cystitis Subjects, 500 mg qd (N = 94), Baseline) was 65.8 mg/dL, the “mean LDL blood level” value (LDL blood levels; Table 3-B Interstitial Cystitis Subjects, 500 mg qd (N = 94), Week 4) was 60.1 mg/dL and the “mean LDL blood level” value (LDL blood levels; Table 3-B Interstitial Cystitis Subjects, 500 mg qd (N = 94), Week 8) was 55.5 mg/dL. For the same compound, the “mean LDL blood level” value (LDL blood levels; Table 3-C Healthy Subjects, 1500 mg/day × 10 days (N = 11), Day 11) was 103.0 mg/dL, the “mean LDL blood level” value (LDL blood levels; Table 3-C Healthy Subjects, 1500 mg/day × 10 days (N = 11), Screening) was 99.1 mg/dL and the “mean LDL blood level” value (LDL blood levels; Table 3-D Asthma Subjects, 500 mg tid (N = 54), Baseline) was 100.2 mg/dL. For the same compound, the “mean LDL blood level” value (LDL blood levels; Table 3-D Asthma Subjects, 500 mg tid (N = 54), Week 4) was 99.5 mg/dL, the “mean LDL blood level” value (LDL blood levels; Table 3-D Asthma Subjects, 500 mg tid (N = 54), Week 8) was 99.1 mg/dL and the “mean LDL blood level” value (LDL blood levels; Table 3-D Asthma Subjects, 500 mg tid (N = 54), Week 12) was 92.5 mg/dL. The “mean LDL blood level” value (LDL blood levels; Table 3-D Asthma Subjects, 500 mg tid (N = 54), Week 14 (follow-up, administration stopped at 12 weeks)) was 102.6 mg/dL, the “mean LDL blood level” value (LDL blood levels; Table 3-D Asthma Subjects, 750 mg bid (N = 53), Baseline) was 106.3 mg/dL and the “mean LDL blood level” value (LDL blood levels; Table 3-D Asthma Subjects, 750 mg bid (N = 53), Week 4) was 102.3 mg/dL. For the same compound, the “mean LDL blood level” value (LDL blood levels; Table 3-D Asthma Subjects, 750 mg bid (N = 53), Week 8) was 106.6 mg/dL, the “mean LDL blood level” value (LDL blood levels; Table 3-D Asthma Subjects, 750 mg bid (N = 53), Week 12) was 110.9 mg/dL and the “mean LDL blood level” value (LDL blood levels; Table 3-D Asthma Subjects, 750 mg bid (N = 53), Week 14 (follow-up, administration stopped at 12 weeks)) was 103.6 mg/dL. The “effect on mean LDL blood levels compared to control subjects (placebo)” value (LDL blood levels; [3]) was “substantial lowering”, the “effect on blood levels of HDL” value (blood levels of HDL) was “not altered substantially, if at all” and the “mean triglyceride blood level” value ([1]; Table 1-A Asthma Subjects, 500 mg tid (N = 36), Screening) was 109.5 mg/dL. For the same compound, the “mean triglyceride blood level” value ([1]; Table 1-A Asthma Subjects, 500 mg tid (N = 36), Week 4) was 91.6 mg/dL, the “mean triglyceride blood level” value ([1]; Table 1-A Asthma Subjects, 750 mg bid (N = 36), Screening) was 125.5 mg/dL and the “mean triglyceride blood level” value ([1]; Table 1-A Asthma Subjects, 750 mg bid (N = 36), Week 4) was 98.5 mg/dL. For the same compound, the “mean triglyceride blood level” value ([1]; Table 1-A Asthma Subjects, 750 mg qd (N = 36), Screening) was 112.2 mg/dL, the “mean triglyceride blood level” value ([1]; Table 1-A Asthma Subjects, 750 mg qd (N = 36), Week 4) was 117.2 mg/dL and the “mean triglyceride blood level” value ([1]; Table 1-B Interstitial Cystitis Subjects, 500 mg bid (N = 106), Baseline) was 135.7 mg/dL. The “mean triglyceride blood level” value ([1]; Table 1-B Interstitial Cystitis Subjects, 500 mg bid (N = 106), Week 4) was 106.7 mg/dL, the “mean triglyceride blood level” value ([1]; Table 1-B Interstitial Cystitis Subjects, 500 mg bid (N = 106), Week 8) was 110.7 mg/dL and the “mean triglyceride blood level” value ([1]; Table 1-B Interstitial Cystitis Subjects, 500 mg qd (N = 94), Baseline) was 136.1 mg/dL. The “mean triglyceride blood level” value ([1]; Table 1-B Interstitial Cystitis Subjects, 500 mg qd (N = 94), Week 4) was 109.5 mg/dL, the “mean triglyceride blood level” value ([1]; Table 1-B Interstitial Cystitis Subjects, 500 mg qd (N = 94), Week 8) was 124.7 mg/dL and the “mean triglyceride blood level” value ([1]; Table 1-C Healthy Subjects, 1500 mg/day × 10 days (N = 11), Day 11) was 87.5 mg/dL. For the same compound, the “mean triglyceride blood level” value ([1]; Table 1-C Healthy Subjects, 1500 mg/day × 10 days (N = 11), Screening) was 145.4 mg/dL, the “mean triglyceride blood level” value ([1]; Table 1-D Asthma Subjects, 500 mg tid (N = 54), Baseline) was 159.4 mg/dL and the “mean triglyceride blood level” value ([1]; Table 1-D Asthma Subjects, 500 mg tid (N = 54), Week 4) was 112.5 mg/dL. The “mean triglyceride blood level” value ([1]; Table 1-D Asthma Subjects, 500 mg tid (N = 54), Week 8) was 132.4 mg/dL, the “mean triglyceride blood level” value ([1]; Table 1-D Asthma Subjects, 500 mg tid (N = 54), Week 12) was 147.7 mg/dL and the “mean triglyceride blood level” value ([1]; Table 1-D Asthma Subjects, 500 mg tid (N = 54), Week 14 (follow-up, administration stopped at 12 weeks)) was 134.1 mg/dL. The “mean triglyceride blood level” value ([1]; Table 1-D Asthma Subjects, 750 mg bid (N = 53), Baseline) was 117.0 mg/dL, the “mean triglyceride blood level” value ([1]; Table 1-D Asthma Subjects, 750 mg bid (N = 53), Week 4) was 94.1 mg/dL and the “mean triglyceride blood level” value ([1]; Table 1-D Asthma Subjects, 750 mg bid (N = 53), Week 8) was 101.4 mg/dL. For the same compound, the “mean triglyceride blood level” value ([1]; Table 1-D Asthma Subjects, 750 mg bid (N = 53), Week 12) was 114.0 mg/dL, the “mean triglyceride blood level” value ([1]; Table 1-D Asthma Subjects, 750 mg bid (N = 53), Week 14 (follow-up, administration stopped at 12 weeks)) was 104.6 mg/dL and the “triglyceride levels during follow-up period compared with a control group” value ([1]; Table 1-D, week 14, after administration was stopped at 12 weeks) was “continued their downward trend”. The “effect on mean triglyceride blood levels compared to control subjects (placebo)” value [1, 3] was “substantial lowering”, the “mean total cholesterol blood level” value ([2]; Table 2-A Asthma Subjects, 500 mg tid (N = 36), Screening) was 193.5 mg/dL and the “mean total cholesterol blood level” value ([2]; Table 2-A Asthma Subjects, 500 mg tid (N = 36), Week 4) was 183.1 mg/dL. The “mean total cholesterol blood level” value ([2]; Table 2-A Asthma Subjects, 750 mg bid (N = 36), Screening) was 180.5 mg/dL, the “mean total cholesterol blood level” value ([2]; Table 2-A Asthma Subjects, 750 mg bid (N = 36), Week 4) was 181.6 mg/dL and the “mean total cholesterol blood level” value ([2]; Table 2-A Asthma Subjects, 750 mg qd (N = 36), Screening) was 191.5 mg/dL. The “mean total cholesterol blood level” value ([2]; Table 2-A Asthma Subjects, 750 mg qd (N = 36), Week 4) was 180.6 mg/dL, the “mean total cholesterol blood level” value ([2]; Table 2-B Interstitial Cystitis Subjects, 500 mg bid (N = 106), Baseline) was 174.5 mg/dL and the “mean total cholesterol blood level” value ([2]; Table 2-B Interstitial Cystitis Subjects, 500 mg bid (N = 106), Week 4) was 169.8 mg/dL. The “mean total cholesterol blood level” value ([2]; Table 2-B Interstitial Cystitis Subjects, 500 mg bid (N = 106), Week 8) was 168.7 mg/dL, the “mean total cholesterol blood level” value ([2]; Table 2-B Interstitial Cystitis Subjects, 500 mg qd (N = 94), Baseline) was 173.8 mg/dL and the “mean total cholesterol blood level” value ([2]; Table 2-B Interstitial Cystitis Subjects, 500 mg qd (N = 94), Week 4) was 171.5 mg/dL. For the same compound, the “mean total cholesterol blood level” value ([2]; Table 2-B Interstitial Cystitis Subjects, 500 mg qd (N = 94), Week 8) was 170.5 mg/dL, the “mean total cholesterol blood level” value ([2]; Table 2-C Healthy Subjects, 1500 mg/day × 10 days (N = 11), Day 11) was 167.8 mg/dL and the “mean total cholesterol blood level” value ([2]; Table 2-C Healthy Subjects, 1500 mg/day × 10 days (N = 11), Screening) was 176.9 mg/dL. For the same compound, the “mean total cholesterol blood level” value ([2]; Table 2-D Asthma Subjects, 500 mg tid (N = 54), Baseline) was 182.5 mg/dL, the “mean total cholesterol blood level” value ([2]; Table 2-D Asthma Subjects, 500 mg tid (N = 54), Week 4) was 179.3 mg/dL and the “mean total cholesterol blood level” value ([2]; Table 2-D Asthma Subjects, 500 mg tid (N = 54), Week 8) was 176.9 mg/dL. For the same compound, the “mean total cholesterol blood level” value ([2]; Table 2-D Asthma Subjects, 500 mg tid (N = 54), Week 12) was 169.6 mg/dL, the “mean total cholesterol blood level” value ([2]; Table 2-D Asthma Subjects, 500 mg tid (N = 54), Week 14 (follow-up, administration stopped at 12 weeks)) was 182.8 mg/dL and the “mean total cholesterol blood level” value ([2]; Table 2-D Asthma Subjects, 750 mg bid (N = 53), Baseline) was 185.4 mg/dL. The “mean total cholesterol blood level” value ([2]; Table 2-D Asthma Subjects, 750 mg bid (N = 53), Week 4) was 181.6 mg/dL, the “mean total cholesterol blood level” value ([2]; Table 2-D Asthma Subjects, 750 mg bid (N = 53), Week 8) was 187.3 mg/dL and the “mean total cholesterol blood level” value ([2]; Table 2-D Asthma Subjects, 750 mg bid (N = 53), Week 12) was 192.4 mg/dL. For the same compound, the “mean total cholesterol blood level” value ([2]; Table 2-D Asthma Subjects, 750 mg bid (N = 53), Week 14 (follow-up, administration stopped at 12 weeks)) was 182.6 mg/dL and the “effect on mean total cholesterol blood levels compared to control subjects (placebo)” value [2, 3] was “substantial lowering”.
